Experimental data as given in US20260078119A1, “DEGRADER COMPOUNDS AND USES THEREOF” (Bristol-Myers Squibb Company, priority 2024, published 2026).
Where two headings read alike, the source gives them in different places.

Key:
CAL-51 cells = test: CAL-51 Cell Proliferation Assay; format: cell-based; conditions: for EC50: 120 hours incubation, 10-point dose response, 4-fold dilutions starting at 10 μM, Cell-Titer-Glo, read-out: CAL-51 Prolif EC50; for CAL-51 Prolif Ymin: minimal percent of DMSO control observed in the concentrations tested (Ymin-obs), 120 hours
Summary of the method: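 EC50 comes from a four-parameter logistic fit of blank-corrected, DMSO-normalised CellTiter-Glo signal after 120 h growth (37 °C, 350 cells/well, RPMI complete medium). Compounds ran as 10-point 4-fold series starting at 10 μM, duplicate, 0.1% DMSO. Ymin-obs records the minimal percent of DMSO control observed.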

FAK = molecular target: T1, FAK (Homo sapiens, UniProt Q05397); test: FAK-HiBiT Degradation Assay; format: cell-based; conditions: for DC50: read-out: FAK HiBiT EC50; for FAK HiBiT Ymin: lower limit of the four parameter fit (value A), Ymax derived using DMSO control, JHH-4-FAK-HiBiT cells, two hours
T1 construct: homozygous knock-in of a HiBiT tag (Promega Corporation, Madison, WI) to the C-terminus of the FAK gene in its natural genomic locus; endogenous in cells; host or cells: JHH-4-FAK-HiBiT clone d01 (CRISPR-Cas9 knock-in at the endogenous locus)
T1 sequence (Q05397 whole entry): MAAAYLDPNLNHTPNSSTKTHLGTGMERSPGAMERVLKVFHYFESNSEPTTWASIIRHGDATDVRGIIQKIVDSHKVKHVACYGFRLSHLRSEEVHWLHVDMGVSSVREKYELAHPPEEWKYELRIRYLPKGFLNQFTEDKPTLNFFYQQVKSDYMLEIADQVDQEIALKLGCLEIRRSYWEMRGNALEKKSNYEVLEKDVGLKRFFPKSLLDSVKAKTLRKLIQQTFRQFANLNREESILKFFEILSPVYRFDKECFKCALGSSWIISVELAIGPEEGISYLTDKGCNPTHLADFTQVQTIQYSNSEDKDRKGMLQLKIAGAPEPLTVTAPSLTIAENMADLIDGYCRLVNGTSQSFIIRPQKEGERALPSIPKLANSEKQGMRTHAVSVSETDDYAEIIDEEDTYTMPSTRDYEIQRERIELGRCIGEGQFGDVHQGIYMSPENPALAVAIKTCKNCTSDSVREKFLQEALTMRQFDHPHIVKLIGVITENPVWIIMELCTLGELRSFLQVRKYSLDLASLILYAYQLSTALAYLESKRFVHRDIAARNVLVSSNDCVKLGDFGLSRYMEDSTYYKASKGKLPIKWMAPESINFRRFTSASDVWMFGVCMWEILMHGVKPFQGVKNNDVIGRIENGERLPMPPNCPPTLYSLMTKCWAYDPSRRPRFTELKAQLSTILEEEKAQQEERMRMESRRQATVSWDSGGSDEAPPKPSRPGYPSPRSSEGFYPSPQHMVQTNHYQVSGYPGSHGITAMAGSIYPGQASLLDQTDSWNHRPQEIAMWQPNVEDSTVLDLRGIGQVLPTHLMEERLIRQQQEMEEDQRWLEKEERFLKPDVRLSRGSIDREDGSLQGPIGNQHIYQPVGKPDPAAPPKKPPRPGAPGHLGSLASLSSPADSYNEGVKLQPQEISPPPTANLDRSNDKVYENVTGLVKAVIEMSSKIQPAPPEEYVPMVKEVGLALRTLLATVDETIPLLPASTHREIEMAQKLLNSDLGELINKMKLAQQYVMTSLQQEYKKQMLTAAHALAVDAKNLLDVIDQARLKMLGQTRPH
Summary of the method: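 Degradation read out by HiBiT lytic luminescence after 2 h compound exposure (top concentration 1 μM, 3-fold, 10 points) in JHH-4 clone d01 bearing endogenous FAK-HiBiT knock-in. Four-parameter logistic fit gave EC50 and Ymin; DMSO wells defined Ymax.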

[1] = JHH-4-FAK-HiBiT clone d01 cells, two hours incubation, 10-point dose response, 3-fold dilution starting at 1 μM, Nano-Glo HiBiT luminescence

| DC50 (FAK; [1]) | FAK HiBiT Ymin (FAK) | EC50 (FAK; [1]) | Structure (SMILES) | EC50 (CAL-51 cells; Homo sapiens) | CAL-51 Prolif Ymin (CAL-51 cells) | EC50 (CAL-51 cells) |
| --- | --- | --- | --- | --- | --- | --- |
| 24.4 nM | 32.32 |  | O=C1CCC(N2Cc3cc(Cn4ncc5c(-c6ncc(C(F)(F)F)cc6Cl)cc(NC6CC6)nc54)ccc3C2=O)C(=O)N1 (stereo not drawn) [Example 98, 3-[5-({4-[3-chloro-5-(trifluoromethyl)pyridin-2-yl]-6-(cyclopropyl-amino)-1H-pyrazolo[3,4-b]pyridin-1-yl}methyl)-1-oxo-2,3-dihydro-1H-isoindol-2-yl]piperidine-2,6-dione] | 3.66 nM | 39.93 |  |
| 0.5 nM | 8.05 |  | O=C1CC[C@H](N2Cc3cc(Cn4ncc5c(-c6ncc(C(F)(F)F)cc6Cl)cc(N6CC(F)C6)nc54)ccc3C2=O)C(=O)N1 [Example 6, (3S)-3-[5-({4-[3-chloro-5-(trifluoromethyl)pyridin-2-yl]-6-(3-fluoroazetidin-1-yl)-1H-pyrazolo[3,4-b]pyridin-1-yl}methyl)-1-oxo-2,3-dihydro-1H-isoindol-2-yl]piperidine-2,6-dione] | 0.4 nM | 31.07 |  |
| 4.08 nM | 8.81 |  | Cc1cc(C(F)(F)F)ccc1-c1cc(N2CC[C@H](O)C2)nc2c1cnn2Cc1ccc2c(c1)CN([C@H]1CCC(=O)NC1=O)C2=O [Example 63, (3S)-3-[5-({6-[(3S)-3-hydroxypyrrolidin-1-yl]-4-[2-methyl-4-(trifluoromethyl)phenyl]-1H-pyrazolo[3,4-b]pyridin-1-yl}methyl)-1-oxo-2,3-dihydro-1H-isoindol-2-yl]piperidine-2,6-dione] | 1.92 nM | 31.58 |  |
| 5.55 nM | 9.26 |  | COc1cnc(-c2cc(N3CC(F)C3)nc3c2cnn3Cc2ccc3c(c2)CN(C2CCC(=O)NC2=O)C3=O)c(Cl)c1 (stereo not drawn) [Example 69, 3-(5-{[4-(3-chloro-5-methoxypyridin-2-yl)-6-(3-fluoroazetidin-1-yl)-1H-pyrazolo[3,4-b]pyridin-1-yl]methyl}-1-oxo-2,3-dihydro-1H-isoindol-2-yl)piperidine-2,6-dione] | 1.84 nM | 23.38 |  |
| 9.06 nM | 5.83 |  | Cc1cc(OC(C)C)cnc1-c1cc(N2CC(F)C2)nc2c1cnn2Cc1ccc2c(c1)CN(C1CCC(=O)NC1=O)C2=O (stereo not drawn) [Example 80, 3-(5-{[6-(3-fluoroazetidin-1-yl)-4-[3-methyl-5-(propan-2-yloxy)pyridin-2-yl]-1H-pyrazolo[3,4-b]pyridin-1-yl]methyl}-1-oxo-2,3-dihydro-1H-isoindol-2-yl)piperidine-2,6-dione] | 1.68 nM | 27.48 |  |
| 35.7 nM | 27.68 |  | CC(C)(O)c1ccc(-c2cc(N3CCC3)nc3c2cnn3Cc2ccc3c(c2)CN(C2CCC(=O)NC2=O)C3=O)c(Cl)c1 (stereo not drawn) [Example 105, 3-(5-{[6-(azetidin-1-yl)-4-[2-chloro-4-(2-hydroxypropan-2-yl)phenyl]-1H-pyrazolo[3,4-b]pyridin-1-yl]methyl}-1-oxo-2,3-dihydro-1H-isoindol-2-yl)piperidine-2,6-dione] | 4.91 nM | 55.87 |  |
| 213 nM | 42.87 |  | O=C1CC[C@@H](N2Cc3cc(Cn4ncc5c(-c6ncc(C7COC7)cc6Cl)cc(N6CC(F)C6)nc54)ccc3C2=O)C(=O)N1 (single isomer, unassigned) [Example 127] | 8.94 nM | 37.97 |  |
| 0.86 nM | 8.55 |  | O=C1CCC(N2Cc3cc(Cn4cnc5c(-c6ccc(C(F)(F)F)cc6Cl)cc(N6CC(F)C6)nc54)ccc3C2=O)C(=O)N1 (stereo not drawn) [Example 19, 3-(5-((7-(2-chloro-4-(trifluoromethyl)phenyl)-5-(3-fluoroazetidin-1-yl)-3H-imidazo[4,5-b]pyridin-3-yl)methyl)-1-oxoisoindolin-2-yl)piperidine-2,6-dione] | 0.38 nM | 23.48 |  |
| ≥ 1000 nM | 96.37 |  | CCc1cc2c(-c3ncc(C(F)(F)F)cc3Cl)cc(N3CC(F)C3)nc2n1Cc1ccc2c(c1)CN(C1CCC(=O)NC1=O)C2=O (stereo not drawn) [Example 16, 3-(5-((4-(3-chloro-5-(trifluoromethyl)pyridin-2-yl)-2-ethyl-6-(3-fluoroazetidin-1-yl)-1H-pyrrolo[2,3-b]pyridin-1-yl)methyl)-1-oxoisoindolin-2-yl)piperidine-2,6-dione] | 298 nM | 81.53 |  |
| 0.67 nM | 7.50 |  | CN(C)c1cc(-c2ccc(C#N)cc2Cl)c2cnn(Cc3ccc4c(c3)CN(C3CCC(=O)NC3=O)C4=O)c2n1 (stereo not drawn) [Example 12, 3-chloro-4-[6-(dimethylamino)-1-{[2-(2,6-dioxopiperidin-3-yl)-1-oxo-2,3-dihydro-1H-isoindol-5-yl]methyl}-1H-pyrazolo[3,4-b]pyridin-4-yl]benzonitrile] | 0.99 nM | 23.97 |  |
|  | 7.20 | 14.6 nM | CN(C)c1cc(-c2ncc(C#N)cc2Cl)c2c(n1)N(Cc1ccc3c(c1)CN(C1CCC(=O)NC1=O)C3=O)CC2 (stereo not drawn) [Example 14, 5-chloro-6-(6-(dimethylamino)-1-((2-(2,6-dioxopiperidin-3-yl)-1-oxoisoindolin-5-yl)methyl)-2,3-dihydro-1H-pyrrolo[2,3-b]pyridin-4-yl)nicotinonitrile] |  | 23.56 | 5.06 nM |
| ≥ 1000 nM | 91.34 |  | O=C1CC[C@H](N2Cc3cc(Cn4ncc5c(-c6ncc(C(F)(F)F)cc6Cl)cc(NC6CCOCC6)nc54)ccc3C2=O)C(=O)N1 [Example 134, (3S)-3-[5-({4-[3-chloro-5-(trifluoromethyl)pyridin-2-yl]-6-[(oxan-4-yl)amino]-1H-pyrazolo[3,4-b]pyridin-1-yl}methyl)-1-oxo-2,3-dihydro-1H-isoindol-2-yl]piperidine-2,6-dione] | 8.5 nM | 65.79 |  |
| 0.91 nM | 8.98 |  | O=C1CCC(N2Cc3cc(Cn4ncc5c(-c6ncc(C(F)(F)F)cc6Cl)cc(N6CC(F)C6)nc54)ccc3C2=O)C(=O)N1 (stereo not drawn) [Example 34, 3-[5-({4-[3-chloro-5-(trifluoromethyl)pyridin-2-yl]-6-(3-fluoroazetidin-1-yl)-1H-pyrazolo[3,4-b]pyridin-1-yl}methyl)-1-oxo-2,3-dihydro-1H-isoindol-2-yl]piperidine-2,6-dione] | 1.08 nM | 26.10 |  |
| 14.1 nM | 8.03 |  | Cc1cc(C#N)cnc1-c1cc(N2CC(F)C2)nc2c1cnn2Cc1ccc2c(c1)CN(C1CCC(=O)NC1=O)C2=O (stereo not drawn) [Example 91, 6-(1-{[2-(2,6-dioxopiperidin-3-yl)-1-oxo-2,3-dihydro-1H-isoindol-5-yl]methyl}-6-(3-fluoroazetidin-1-yl)-1H-pyrazolo[3,4-b]pyridin-4-yl)-5-methylpyridine-3-carbonitrile] | 7.78 nM | 24.52 |  |
| 84.9 nM | 40.36 |  | CC(C)(O)c1cnc(-c2cc(N3CC(F)C3)nc3c2cnn3Cc2ccc3c(c2)CN([C@H]2CCC(=O)NC2=O)C3=O)c(Cl)c1 [Example 119, (3S)-3-[5-({4-[3-chloro-5-(2-hydroxypropan-2-yl)pyridin-2-yl]-6-(3-fluoroazetidin-1-yl)-1H-pyrazolo[3,4-b]pyridin-1-yl}methyl)-1-oxo-2,3-dihydro-1H-isoindol-2-yl]piperidine-2,6-dione] | 27 nM | 59.05 |  |
| 25.3 nM | 13.33 |  | CN(c1cc(-c2ncc(C(F)(F)F)cc2Cl)c2cnn(Cc3ccc4c(c3)CN([C@H]3CCC(=O)NC3=O)C4=O)c2n1)C1COC1 [Example 99, (3S)-3-[5-({4-[3-chloro-5-(trifluoromethyl)pyridin-2-yl]-6-[methyl(oxetan-3-yl)amino]-1H-pyrazolo[3,4-b]pyridin-1-yl}methyl)-1-oxo-2,3-dihydro-1H-isoindol-2-yl]piperidine-2,6-dione] | 117 nM | 36.78 |  |
| 45.8 nM | 73.08 |  | CCOc1ccc(Cl)c(-c2cc(N3CC(F)C3)nc3c2cnn3Cc2ccc3c(c2)CN([C@H]2CCC(=O)NC2=O)C3=O)n1 [Example 111, (3S)-3-(5-{[4-(3-chloro-6-ethoxypyridin-2-yl)-6-(3-fluoroazetidin-1-yl)-1H-pyrazolo[3,4-b]pyridin-1-yl]methyl}-1-oxo-2,3-dihydro-1H-isoindol-2-yl)piperidine-2,6-dione] | 551 nM | 60.03 |  |
| 1.09 nM | 8.19 |  | O=C1CCC(N2Cc3cc(Cn4ncc5c(-c6ncccc6Cl)c(Cl)c(N6CC(F)C6)nc54)ccc3C2=O)C(=O)N1 (stereo not drawn) [Example 38, 3-(5-{[5-chloro-4-(3-chloropyridin-2-yl)-6-(3-fluoroazetidin-1-yl)-1H-pyrazolo[3,4-b]pyridin-1-yl]methyl}-1-oxo-2,3-dihydro-1H-isoindol-2-yl)piperidine-2,6-dione] | 0.48 nM | 21.89 |  |
